Experimental data: US20240076272A1, “Activators of Heme Regulated Inhibitor Kinase (HRI)” (The Brigham and Women`s Hospital, Inc., priority 2019, published 2024)
Several values for one entry are separate records, joined by “and”; a condition that tells them apart may be missing. Equal values may be shown once.

Columns and labels:
cyclin D1 = experiment: Western blot, cyclin D1 expression in CRL-2813 cells; format: cell-based, human; conditions: 5 μM, 8 hours, Western blot (FIG. 2B)
Procedure: FIGS. 2A-2B show HRI activators of the present application induce eIF2α phosphorylation and modify its downstream effectors. In FIG. 2A, CRL-2813 cells were treated with 5 μM of each compound for 2 hours, cell lysates were probed with phosphorylated (P-eIF2α) and total eIF2α (T-eIF2α) and β-actin specific antibodies. In FIG. 2B, CRL-2813 cells were treated with 5 μM HRI activators for 8 hours and lysates were immunoblotted with antibodies against CHOP, p27^KiPl, cyclin D1 and β-actin.
Cells cultured under recommended media conditions were plated and maintained in serum-containing media without antibiotics in 14-cm plates (Nunc) until reaching 70% confluence. Cells were then treated with compounds for 6 h, washed with cold PBS once, and lysed with M-PER Mammalian Protein Extraction Reagent (Pierce) for 30 min on ice. The cell lysates were centrifuged at 12,000 RPM for 15 min and the supernatants were transferred to fresh tubes and the concentrations were determined by BCA (Pierce). Equal amount of proteins were mixed with Laemmli Sample Buffer, heated at 100° C. for 5 min, separated by SDS-PAGE, and probed with anti-phosphoserine-51-eIF2α (Phos-eIF2α), anti-total eIF2α-specific antibodies (Total-eIF2α) (Biosource International, Hopkinton, MA), anti-CHOP, anti-cyclin D1 or anti-actin (Santa Cruz Biotechnology, CA) using procedures substantially similar to previous reports (see e.g., Aktas et al, Mol. Cell. Biol. 17 (1997) 3850-3857).
Endogenous eIF2α is the best-known substrate of HRI and the upstream regulator of the eIF2·GTP·Met-tRNAi ternary complex abundance, while CHOP expression is a downstream effector of eIF2α phosphorylation. For assessing eIF2α phosphorylation, blotted cell lysates were treated for two hours with vehicle or selected compounds using antibodies specific for the total-eIF2α and the phosphorylated-eIF2α (T-eIF2α and [PhoS^51]-eIF2α), respectively (see e.g., Aktas et al, J. Nutr. 134 (2004) 2487S-2491S) (see FIG. 2A).

[1] = system: eIF2α phosphorylation (ATF-4 5′UTR luciferase reporter); experiment: surrogate eIF2α phosphorylation dual-luciferase reporter (DLR) assay; format: cell-based; conditions: F/R luciferase ratio normalized to DMSO wells (F/R=1); for fold induction at 1.25 µM: read-out: Fold stimulation of ATF-4 Surrogate eIF2α @ 1.25 μM; for fold induction at 5 µM: read-out: Fold stimulation of ATF-4 Surrogate eIF2α @ 5 μM

| SMILES | expression of cyclin D1 relative to DMSO (cyclin D1) | Fold stimulation of ATF-4 Surrogate eIF2α @ 1.25 μM [1] | fold induction at 1.25 µM [1] | Fold stimulation of ATF-4 Surrogate eIF2α @ 5 μM [1] | fold induction at 5 µM [1] |
| --- | --- | --- | --- | --- | --- |
| N#Cc1cc(NC(=O)N[C@H]2C[C@H](Oc3ccc(C(F)(F)F)cc3)C2)cc(C(F)(F)F)c1 [Compound 1-IV, 1-(3-Cyano-5-(trifluoromethyl)phenyl)-3-(trans-3-(4-(trifluoromethyl)phenoxy)cyclobutyl)urea] | decreased the expression of cyclin D1 | 4.4 ± 1.1 fold | 4.4 | 10 ± 1.8 fold | 10 |
| N#Cc1cc(NC(=O)N[C@H]2CC[C@H](Oc3ccc(C(F)(F)F)cc3)CC2)cc(C(F)(F)F)c1 [Compound 1-VI, 1-(3-cyano-5-trifluoromethyl) phenyl-3-(trans-4-(4-(trifluoromethyl)phenoxy)cyclohexyl)urea, reference compound] | decreased the expression of cyclin D1 | 5.7 fold and 5.7 ± 1.4 fold |  | 13.8 fold and 13.8 ± 1.5 fold |  |
| N#Cc1cc(F)cc(NC(=O)N[C@H]2CC[C@H](Oc3ccc(C(F)(F)F)cc3)CC2)c1 [Compound 4-VI, 1-(3-Cyano-5-fluorophenyl)-3-(trans-4-(4-(trifluoromethyl)phenoxy)cyclohexyl)urea] | decreased the expression of cyclin D1 |  | 4.6 ± 0.7 |  | 9.3 ± 1.3 |
| N#Cc1ccc(NC(=O)N[C@H]2CC[C@H](Oc3ccc(C(F)(F)F)cc3)CC2)cc1F [Compound 5-VI, 1-(4-Cyano-3-fluorophenyl)-3-(trans-4-(4-(trifluoromethyl)phenoxy)cyclohexyl)urea] | decreased the expression of cyclin D1 | 5.5 ± 0.4 fold | 5.5 |  | 10.4 ± 1 |
